Source: patent US8192962B2, “Processes for detecting toxic substances” (Daikin Industries, Ltd., priority 2001, dated 2012)

Test system: Mitochondria-located protein genes
Assay: DNA chip mRNA expression in yeast, mitochondria-located protein genes (Table 2)
Format: cell-based, Saccharomyces cerevisiae S288C
Conditions: cells incubated two hours with the chemical substance
Summary of the method: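 Value is the scanned fluorescence intensity ratio of exposed versus chemical-free cells. Log-phase S288C yeast in YPD at 25° C. received one toxic substance for two hours, dosed to slow growth without killing; Cy3/Cy5-labeled cDNA from oligo-dT-purified mRNA was hybridized to a whole-genome chip at 65° C.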

[Cl][Hg][Cl] [(3), HgCl2]
The level of expressed mRNA in the presence of chemical substance/The level of expressed mRNA in the absence of chemical substance (yeast gene YJR121W): 3.3
The level of expressed mRNA in the presence of chemical substance/The level of expressed mRNA in the absence of chemical substance (yeast gene YKL003C): 0.8
The level of expressed mRNA in the presence of chemical substance/The level of expressed mRNA in the absence of chemical substance (yeast gene YKL016C): 0.7
The level of expressed mRNA in the presence of chemical substance/The level of expressed mRNA in the absence of chemical substance (yeast gene YKL141W): 4.7
The level of expressed mRNA in the presence of chemical substance/The level of expressed mRNA in the absence of chemical substance (yeast gene YKL142W): 3.1
The level of expressed mRNA in the presence of chemical substance/The level of expressed mRNA in the absence of chemical substance (yeast gene YKL148C): 3.7
The level of expressed mRNA in the presence of chemical substance/The level of expressed mRNA in the absence of chemical substance (yeast gene YKL170W): 0.5
The level of expressed mRNA in the presence of chemical substance/The level of expressed mRNA in the absence of chemical substance (yeast gene YKL194C): 0.8
The level of expressed mRNA in the presence of chemical substance/The level of expressed mRNA in the absence of chemical substance (yeast gene YKR066C): 5.5
The level of expressed mRNA in the presence of chemical substance/The level of expressed mRNA in the absence of chemical substance (yeast gene YLL041C): 4.6
The level of expressed mRNA in the presence of chemical substance/The level of expressed mRNA in the absence of chemical substance (yeast gene YLR038C): 0.6
The level of expressed mRNA in the presence of chemical substance/The level of expressed mRNA in the absence of chemical substance (yeast gene YLR259C): 3.1
The level of expressed mRNA in the presence of chemical substance/The level of expressed mRNA in the absence of chemical substance (yeast gene YLR295C): 1.1
The level of expressed mRNA in the presence of chemical substance/The level of expressed mRNA in the absence of chemical substance (yeast gene YLR304C): 5.0
The level of expressed mRNA in the presence of chemical substance/The level of expressed mRNA in the absence of chemical substance (yeast gene YLR348C): 1.2
The level of expressed mRNA in the presence of chemical substance/The level of expressed mRNA in the absence of chemical substance (yeast gene YLR395C): 2.2
The level of expressed mRNA in the presence of chemical substance/The level of expressed mRNA in the absence of chemical substance (yeast gene YML054C): 1.3
The level of expressed mRNA in the presence of chemical substance/The level of expressed mRNA in the absence of chemical substance (yeast gene YML120C): 1.9
The level of expressed mRNA in the presence of chemical substance/The level of expressed mRNA in the absence of chemical substance (yeast gene YML129C): 0.9
The level of expressed mRNA in the presence of chemical substance/The level of expressed mRNA in the absence of chemical substance (yeast gene YMR023C): 0.5
The level of expressed mRNA in the presence of chemical substance/The level of expressed mRNA in the absence of chemical substance (yeast gene YMR035W): 1.5
The level of expressed mRNA in the presence of chemical substance/The level of expressed mRNA in the absence of chemical substance (yeast gene YMR083W): 2.6
The level of expressed mRNA in the presence of chemical substance/The level of expressed mRNA in the absence of chemical substance (yeast gene YMR089C): 0.9
The level of expressed mRNA in the presence of chemical substance/The level of expressed mRNA in the absence of chemical substance (yeast gene YMR152W): 1.8
The level of expressed mRNA in the presence of chemical substance/The level of expressed mRNA in the absence of chemical substance (yeast gene YMR203W): 3.0
The level of expressed mRNA in the presence of chemical substance/The level of expressed mRNA in the absence of chemical substance (yeast gene YMR267W): 0.7
The level of expressed mRNA in the presence of chemical substance/The level of expressed mRNA in the absence of chemical substance (yeast gene YNL055C): 5.5
The level of expressed mRNA in the presence of chemical substance/The level of expressed mRNA in the absence of chemical substance (yeast gene YNL071W): 1.7
The level of expressed mRNA in the presence of chemical substance/The level of expressed mRNA in the absence of chemical substance (yeast gene YNL073W): 0.9
The level of expressed mRNA in the presence of chemical substance/The level of expressed mRNA in the absence of chemical substance (yeast gene YNL104C): 3.0
The level of expressed mRNA in the presence of chemical substance/The level of expressed mRNA in the absence of chemical substance (yeast gene YNL256W): 0.6
The level of expressed mRNA in the presence of chemical substance/The level of expressed mRNA in the absence of chemical substance (yeast gene YOL096C): 1.2
The level of expressed mRNA in the presence of chemical substance/The level of expressed mRNA in the absence of chemical substance (yeast gene YOR020C): 1.7
The level of expressed mRNA in the presence of chemical substance/The level of expressed mRNA in the absence of chemical substance (yeast gene YOR037W): 0.6
The level of expressed mRNA in the presence of chemical substance/The level of expressed mRNA in the absence of chemical substance (yeast gene YOR100C): 1.6
The level of expressed mRNA in the presence of chemical substance/The level of expressed mRNA in the absence of chemical substance (yeast gene YOR130C): 1.4
The level of expressed mRNA in the presence of chemical substance/The level of expressed mRNA in the absence of chemical substance (yeast gene YOR142W): 3.4
The level of expressed mRNA in the presence of chemical substance/The level of expressed mRNA in the absence of chemical substance (yeast gene YOR150W): 1.0
The level of expressed mRNA in the presence of chemical substance/The level of expressed mRNA in the absence of chemical substance (yeast gene YOR176W): 2.7
The level of expressed mRNA in the presence of chemical substance/The level of expressed mRNA in the absence of chemical substance (yeast gene YOR187W): 1.9
The level of expressed mRNA in the presence of chemical substance/The level of expressed mRNA in the absence of chemical substance (yeast gene YOR316C): 1.5
The level of expressed mRNA in the presence of chemical substance/The level of expressed mRNA in the absence of chemical substance (yeast gene YPL040C): 0.8
The level of expressed mRNA in the presence of chemical substance/The level of expressed mRNA in the absence of chemical substance (yeast gene YPL134C): 1.6
The level of expressed mRNA in the presence of chemical substance/The level of expressed mRNA in the absence of chemical substance (yeast gene YPL135W): 2.5
The level of expressed mRNA in the presence of chemical substance/The level of expressed mRNA in the absence of chemical substance (yeast gene YPL215W): 1.0
The level of expressed mRNA in the presence of chemical substance/The level of expressed mRNA in the absence of chemical substance (yeast gene YPL262W): 3.8
The level of expressed mRNA in the presence of chemical substance/The level of expressed mRNA in the absence of chemical substance (yeast gene YPR024W): 1.3
The level of expressed mRNA in the presence of chemical substance/The level of expressed mRNA in the absence of chemical substance (yeast gene YPR037C): 1.6
The level of expressed mRNA in the presence of chemical substance/The level of expressed mRNA in the absence of chemical substance (yeast gene YPR047W): 0.9
The level of expressed mRNA in the presence of chemical substance/The level of expressed mRNA in the absence of chemical substance (yeast gene YPR134W): 0.8
